Measured values taken from paper PMC7570966 (Molecules, 2020).
Where two headings read alike, the source gives them in different places.

Legend:
[1] = molecular target: T1, acetylcholinesterase (AChE) (Electrophorus electricus, UniProt O42275); experiment: biochemical; conditions: Ellman's method, pH 8, triplicate
T1 construct: purchased Sigma–Aldrich (St. Louis, MO, USA)
Method: AChE inhibitory activities of the synthesized flavone derivatives were determined by Ellman’s method [45]. […] The assay was performed as described earlier [46] in 96-well microtiter plates using the EMR-500 ELISA system (Labomed, Los Angeles, CA, USA). Each well of the plate contained a mixture of sodium phosphate buffer pH 8, sample (studied compounds or reference), acetylcholinesterase, ATCI, and 5,5′-dithio-bisnitrobenzoic acid (DTNB). The absorbance was recorded at 405 nm. All samples were assayed in triplicate.

β-secretase (BACE-1) = molecular target: T2, β-secretase (BACE-1) (Homo sapiens, UniProt P56817); experiment: biochemical
T2 construct: purchased Sigma–Aldrich
T2 sequence (P56817 46-501): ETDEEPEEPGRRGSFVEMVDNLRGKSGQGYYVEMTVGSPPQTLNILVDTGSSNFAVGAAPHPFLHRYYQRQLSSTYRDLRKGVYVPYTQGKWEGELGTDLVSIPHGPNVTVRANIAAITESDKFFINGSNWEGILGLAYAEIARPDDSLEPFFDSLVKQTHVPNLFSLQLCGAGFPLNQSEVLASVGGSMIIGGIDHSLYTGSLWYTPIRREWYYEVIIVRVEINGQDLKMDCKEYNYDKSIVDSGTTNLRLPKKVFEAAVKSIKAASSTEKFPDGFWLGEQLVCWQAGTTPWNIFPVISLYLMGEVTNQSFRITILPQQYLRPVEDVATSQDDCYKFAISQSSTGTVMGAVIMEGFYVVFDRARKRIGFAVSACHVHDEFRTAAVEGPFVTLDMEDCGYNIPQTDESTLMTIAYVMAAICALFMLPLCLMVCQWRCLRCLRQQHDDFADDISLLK
From the text: A fluorescence β-Secretase (BACE-1) Activity Detection Kit was purchased from Sigma–Aldrich and used to determine the effect of the synthesized flavone derivatives on β-secretase activity. […] The enzyme solution was reacted with the substrate (7-methoxycumarin-4-acetyl-(Asn670, Lue671)-amyloid β/A4 precursor protein 770 fragment 667–676-(2,4-dinitrophenyl))Lys-Arg-Arg amide trifluoroacetate salt and sulfated polysaccharide samples in a fluorescence assay buffer in different wells. Baseline readings were measure immediately on an F-7000 fluorescence spectrophotometer (Hitachi, Tokyo, Japan; excitation: 320 nm; emission: 405 nm) and repeated after 2 h incubation at 37 °C.

[2] = fluorescence kit, 2 h incubation at 37 °C, read-out: BACE-1 IC50
[3] = observed, -logIC50, read-out: BACE-1 Obs. pIC50 (converted)

T1 sequence (O42275 24-633): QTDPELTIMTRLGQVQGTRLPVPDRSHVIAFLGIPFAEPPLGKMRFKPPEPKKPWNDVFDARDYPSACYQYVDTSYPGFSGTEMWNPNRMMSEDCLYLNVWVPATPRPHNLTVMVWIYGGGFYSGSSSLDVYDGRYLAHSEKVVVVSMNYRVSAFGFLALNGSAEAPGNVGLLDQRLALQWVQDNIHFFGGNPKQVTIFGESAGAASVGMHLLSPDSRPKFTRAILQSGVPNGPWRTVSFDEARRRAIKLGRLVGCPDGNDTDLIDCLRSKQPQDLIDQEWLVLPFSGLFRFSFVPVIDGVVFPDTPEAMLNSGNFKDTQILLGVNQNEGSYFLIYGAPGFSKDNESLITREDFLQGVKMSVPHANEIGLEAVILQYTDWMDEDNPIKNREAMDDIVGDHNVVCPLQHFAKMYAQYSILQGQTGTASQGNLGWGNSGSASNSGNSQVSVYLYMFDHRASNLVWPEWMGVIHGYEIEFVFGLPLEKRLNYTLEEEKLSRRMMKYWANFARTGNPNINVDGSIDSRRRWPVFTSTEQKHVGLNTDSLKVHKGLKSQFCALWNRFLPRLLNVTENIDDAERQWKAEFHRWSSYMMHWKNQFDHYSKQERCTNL

| Compound | IC50 [1] | IC50 (β-secretase (BACE-1); [2]) | IC50 (β-secretase (BACE-1); [3]) | IC50 (β-secretase (BACE-1); BACE-1 IC50, fluorescence kit, 2 h incubation at 37 °C) | IC50 (β-secretase (BACE-1); BACE-1 Obs. pIC50, observed, -logIC50) |
| --- | --- | --- | --- | --- | --- |
| O=c1cc(-c2ccccc2)oc2cc(O)c(O)c(O)c12 [Compound B1, Baicalein] | 37.1 µM | – | – | – | – |
| COc1cc2oc(-c3ccccc3)cc(=O)c2c(O)c1OC [Compound B2, 5-Hydroxy-6,7-dimethoxyflavone] | 25.5 µM | 43.6 µM | 43.7 µM | – | – |
| CCOc1cc2oc(-c3ccccc3)cc(=O)c2c(O)c1OCC [Compound B3, 6,7-Diethoxy-5-hydroxyflavone] | 30 µM | 3.98 µM | 3.98 µM | – | – |
| C=CCOc1cc2oc(-c3ccccc3)cc(=O)c2c(O)c1OCC=C [Compound B4, 6,7-Diallyloxy-5-hydroxyflavone] | 51.8 µM | 70.8 µM | 70.8 µM | – | – |
| C=CCOc1cc2oc(-c3ccccc3)cc(=O)c2c(OCC=C)c1OCC=C [Compound B5, 5,6,7-Triallyloxyflavone] | 191 µM | 17 µM | 17 µM | – | – |
| O=c1cc(-c2ccccc2)oc2cc(OCc3ccccc3)c(OCc3ccccc3)c(OCc3ccccc3)c12 [Compound B6, 5,6,7-Tribenzyloxyflavone] | 80.3 µM | 12.6 µM | 12.6 µM | – | – |
| CC(=O)Oc1cc2oc(-c3ccccc3)cc(=O)c2c(OC(C)=O)c1OC(C)=O [Compound B7, 5,6,7-Triacetoxyflavone] | 51.3 µM | 31.6 µM | 31.6 µM | – | – |
| CCC(=O)Oc1cc2oc(-c3ccccc3)cc(=O)c2c(OC(=O)CC)c1OC(=O)CC [Compound B8, 5,6,7-Tripropionoxyflavone] | 66.2 µM | 22.4 µM | 22.4 µM | – | – |
| COc1cc(O)c2c(=O)cc(-c3ccc(OC)c(OC)c3)oc2c1 [Compound D2, 5-Hydroxy-3’,4’,7-trimethoxyflavone] | 87.1 µM | 2.14 µM | 2.14 µM | – | – |
| CCOc1cc(O)c2c(=O)cc(-c3ccc(OC)c(OCC)c3)oc2c1 [Compound D3, 3’,7-Diethoxy-5-hydroxy-4’-methoxyflavone] | 129 µM | 3.16 µM | 3.16 µM | – | – |
| C=CCOc1cc(O)c2c(=O)cc(-c3ccc(OC)c(OCC=C)c3)oc2c1 [Compound D4, 3’,7-Diallyloxy-5-hydroxy-4’-methoxyflavone] | 151 µM | 3.6 µM | 3.63 µM | – | – |
| COc1cc(OC)c2c(=O)cc(-c3ccc(OC)c(OC)c3)oc2c1 [Compound D5, 3’,4’,5,7-Tetramethoxyflavone] | 73.8 µM | – | – | 1.66 µM | 1.66 µM |
| CCOc1cc(OCC)c2c(=O)cc(-c3ccc(OC)c(OCC)c3)oc2c1 [Compound D6, 3′,5,7-Triethoxy-4′-methoxyflavone] | 75.9 µM | 1.58 µM | 1.58 µM | – | – |
| COc1ccc(-c2cc(=O)c3c(O)cc(OC(=O)c4ccccc4)cc3o2)cc1OC(=O)c1ccccc1 [Compound D7, 3’,7-Dibenzoyloxy-5-hydroxy-4’-methoxyflavone] | 340 µM | 2.86 µM | 2.88 µM | – | – |
